Patent publication US9351515B2, “Nutritional composition and methods of making and using same” (Georgia-Pacific Panel Products LLC, priority 2009, dated 2016)

Test system: green fluorescent protein labeled Salmonella enterica serovar Typhimurium
Experiment: Adherence of Salmonella to porcine derived IPEC J2 jejunal cells (Example 4)
Format: cell-based
Conditions: bacteria pre-exposed to 0.05M methyl α-D mannoside
Description: Porcine derived IPEC J2 jejunal cells were seeded onto 8-well chamber slides. […] The cells were exposed to suspensions containing a green fluorescent protein labeled Salmonella enterica serovar Typhimurium previously exposed for 10 minutes to an equal volume of water or to a suspension containing 17.5 mg Nutritional Composition/ml or 0.05M methyl α-D_mannoside. After the addition of treated or untreated bacteria, the chamber slides were incubated to allow attachment to occur and the wells of each slide were washed. Slides were examined by phase contrast microscopy at 1,000× magnification, and numbers of attached cells of the green fluorescent protein labeled Salmonella enterica serovar Typhimurium were counted on 100 randomly selected IPEC J2 cells.

CO[C@H]1O[C@H](CO)[C@@H](O)[C@H](O)[C@@H]1O [methyl α-D mannoside, methyl α-D-mannoside]
Salmonella binding to the IPEC J2 cells: no effect
